Measurements taken from patent US6632813B1, “6-subtituted-7-heteroquinoxalinecarboxylic acid derivatives and addition salts thereof and processes for the preparation of both” (Kyorin Pharmaceutical Co., Ltd., priority 1999, dated 2003).

What was measured:
AMPA receptor = test: Binding experiment against AMPA receptor ([3H]-AMPA binding, crude synaptic membranes from cerebral cortex); conditions: [3H]-AMPA 5 nmol/L, potassium thiocyanate 100 mmol/L, 30 minutes at 0° C., rat cerebral cortex crude synaptic membranes; IC50 converted to Ki; read-out: [3H]-AMPA (Ki: μmol/L)
Procedure: Binding Experiment Against AMPA Receptor
To a crude synaptic membranes preparation prepared from cerebral cortex in rat were added [^3H]-AMPA (final concentration: 5 nmol/L) that binds selectively to AMPA receptors, potassium thiocyanate (final concentration: 100 mmol/L) and testing compound, and the mixture was incubated for 30 minutes at 0° C. After the reaction was stopped by suction filtration, the radioactivity on filter was measured with liquid scintillation counter. The specific binding level of [^3H]-AMPA was determined by subtracting the non-specific binding level in the presence of glutamic acid (0.1 mmol/L) from total binding level. The [^3H]-AMPA binding in the absence of testing compound was put on 100, and the concentration of compound to decrease by 50% (IC50 value) was determined, which was converted to Ki value to calculate the binding capacity of each compound to AMPA receptor (Eur. J. Pharmacol., 1993, 246, 195-204).

Q: For O=C(NCc1ccn(-c2cc3nc(C(=O)O)c(=O)[nH]c3cc2Cl)c1)Nc1ccc(C(=O)O)cc1 [Example 10, 7-(3-(((4-Carboxyphenyl)aminocarbonylamino)methyl)pyrrole-1-yl)-6-chloro-3,4-dihydro-3-oxoquinoxaline-2-carboxylic Acid], which Ki (AMPA receptor) is on record?
A: Its Ki is 0.067 µmol/L.

Q: What about the melting point of the same compound?
A: The melting point was over 300 °C.

Q: Which Ki (AMPA receptor) does the source give for COc1cc2[nH]c(=O)c(C(=O)O)nc2cc1-n1ccc(CNC(=O)Nc2ccc(C(=O)O)cc2)c1 [Example 11, 7-(3-(((4-Carboxyphenyl)aminocarbonylamino)methyl)pyrrole-1-yl)-3,4-dihydro-6-methoxy-3-oxoquinoxaline-2-carboxylic Acid] here?
A: Its Ki is 0.323 µmol/L.

Q: What about the melting point of the same compound?
A: Its melting point is over 300 °C.

Q: Which Ki (AMPA receptor) does the source give for Cc1cc2[nH]c(=O)c(C(=O)O)nc2cc1-n1ccc(CNC(=O)Nc2ccc(C(=O)O)cc2)c1 [Example 12, 7-(3-(((4-Carboxyphenyl)aminocarbonylamino)methyl)pyrrole-1-yl)-3,4-dihydro-6-methyl-3-oxoquinoxaline-2-carboxylic Acid] here?
A: The Ki was 0.178 µmol/L.

Q: What about the melting point of the same compound?
A: The melting point was over 300 °C.

Q: With O=C(NCc1ccn(-c2cc3nc(C(=O)O)c(=O)[nH]c3cc2F)c1)Nc1ccc(C(=O)O)cc1 [Example 13] as the compound, how does the Ki (AMPA receptor) read?
A: The Ki was 0.924 µmol/L.

Q: And the melting point?
A: Its melting point is over 300 °C.

Q: With O=C(NCc1ccn(-c2cc3nc(C(=O)O)c(=O)[nH]c3cc2Cl)c1)Nc1ccccc1 [Example 26] as the compound, how does the melting point read?
A: The melting point was 171 to 173 °C (dec.).

Q: For CC(C)NC(=O)NCc1ccn(-c2cc3nc(C(=O)O)c(=O)[nH]c3cc2Cl)c1 [Example 37], which melting point is on record?
A: Its melting point is 158 to 160 °C (dec.).

Q: For COc1ccc(NC(=O)NCc2ccn(-c3cc4nc(C(=O)O)c(=O)[nH]c4cc3Cl)c2)cc1 [Example 38, 6-Chloro-3,4-dihydro-7-(3-(((4-methoxyphenyl)aminocarbonylamino)methyl)pyrrole-1-yl)-3-oxoquinoxaline-2-carboxylic Acid], which melting point is on record?
A: Its melting point is 208 to 210 °C (dec.).

Q: Which melting point does the source give for O=C(NCc1ccn(-c2cc3nc(C(=O)O)c(=O)[nH]c3cc2Cl)c1)Nc1ccc(Cl)cc1 [Example 39, 6-Chloro-7-(3-(((4-chlorophenyl)aminocarbonylamino)methyl)pyrrole-1-yl)-3,4-dihydro-3-oxoquinoxaline-2-carboxylic Acid] here?
A: Its melting point is 193 to 195 °C (dec.).

Q: Which melting point does the source give for O=C(NCc1ccn(-c2cc3nc(C(=O)O)c(=O)[nH]c3cc2Cl)c1)Nc1cccc2ccccc12 [Example 40, 6-Chloro-3,4-dihydro-7-(3-(((1-naphthyl)aminocarbonylamino)methyl)pyrrole-1-yl)-3-oxoquinoxaline-2-carboxylic Acid] here?
A: The melting point was 196 to 198 °C.

Q: For O=C(Nc1ccccc1)OCc1cn(-c2cc3nc(C(=O)O)c(=O)[nH]c3cc2Cl)cn1 [Example 47, 6-Chloro-3,4-dihydro-3-oxo-7-(4-((phenylcarbamoyloxy)methyl)imidazole-1-yl)quinoxaline-2-carboxylic Acid], which melting point is on record?
A: Its melting point is 199 to 201 °C (dec.).

Q: Which melting point does the source give for O=C(Nc1ccc(C(=O)O)cc1)OCc1cn(-c2cc3nc(C(=O)O)c(=O)[nH]c3cc2Cl)cn1 [Example 53, 7-(4-(((4-Carboxyphenyl)carbamoyloxy)methyl)imidazole-1-yl)-6-chloro-3,4-dihydro-3-oxoquinoxaline-2-carboxylic Acid] here?
A: The melting point was 246 to 248 °C (dec.).
